Test results from PMC11274883, “Anticancer Effect of Pt^[sequence], Pt^II5MESS, Pt^II56MESS and Their Platinum(IV)-Dihydroxy Derivatives against Triple-Negative Breast Cancer and Cisplatin-Resistant Colorectal Cancer” (Cancers, 2024).

Columns and labels:
Format in all cases: cell-based
HT29 spheroids = experiment: 3D bioprinted spheroid cytotoxicity (WST-1); settings: 72 h, mean ± SEM
Text: (§1) To evaluate the cytotoxic effect of platinum(II) and (IV) complexes in 3D cell culture, MDA−MB−231 or HT29 cells were used to bioprint networks or spheroids with the non-contact drop-on-demand 3D RASTRUM bioprinter (Inventia Life Science, Alexandria, NSW, Australia). The 3D cultures use two constituents: bioink and activator. Cell pellets (2 × 10^6 cells) were resuspended in an activator reagent which forms an instant gel after its addition to the bioink by the bioprinter. The 3D large plug cell model with polyethylene glycol bioinks formulated to mimic the properties of in vivo tissue were chosen as follows. Matrix Px02.31 (activator F177 and bioink F242 with RGD: Fibronectin) was used for MDA−MB−231 3D embedded networks, Px02.00 (activator F177 and bioink F119 without RGD additives, Table S1) was used for MDA−MB−231 spheroids and matrix #Px02.09 (activator F177 and bioink F236 with adhesion peptides including, RGD: Fibronectin, and GFOGER: collagen type I to recapitulate rich in vivo tissue extracellular environments) was used for HT29 spheroids (Inventia Life Science) (Table S1). Each cell line was printed at 10,000 cells/well and loaded with the bioink fluids into the selected printer cartridge. After the automated priming of all fluids into the printer nozzles, each cell line was individually printed on tissue culture plates (Nunc^TM MicroWell^TM 96-Well, Nunclon Delta-Treated, Flat-Bottom Microplate, ThermoFisher #167008), with RASTRUM creating the 3D Large Plug across the 96-well plate. Following completion of the print run, 200 μL DMEM culture medium was added to each well using multichannel pipettes. The plate was then incubated for 7 days (humidified incubator with 5% CO2 at 37 °C) for compact and homogenous spheroid formation before the cytotoxicity assay. When the spheroids developed, post-7-day incubation, media was removed and replaced with 100 µL DMEM. […] Cytotoxicity was then assessed using the WST-1 assay as previously described in Section 2.3.

MDA−MB−231 spheroids = experiment: 3D bioprinted spheroid cytotoxicity (WST-1); settings: 72 h, mean ± SEM
Text: as §1

MDA−MB−231 3D networks = experiment: 3D bioprinted culture cytotoxicity (WST-1); settings: 72 h, mean ± SEM
Text: as §1

HT29 cells = experiment: Cellular uptake of Pt by ICP-MS; settings: for Intracellular Concentration: HT29, 3 µM; for Intracellular/extracellular ratio: HT29, extracellular 3 µM
Description: (§2) A final concentration of 10^6 cells/well of MDA−MB−231 and HT29 cells were seeded in 6-well plates and incubated overnight to adhere. The cells were then treated with a final concentration of 3 µM of either Pt^II or Pt^IV complexes. After 0, 0.5, 1, 3, 6, 12, 24 or 30 h, the medium was removed, and the cells were washed three times with cold PBS and allowed to dry. Then, 400 µL of 69% HNO3 (Baseline grade nitric acid with PPB level reported impurities, Seastar Chemicals, Sidney, BC, Canada) was added to each well for 90 min to ensure complete digestion. […] Iridium 193 (^193Ir) was mixed online and introduced into the ICP-MS to check uptake efficiency and matrix interference. All ICP-MS parameters are described in Table S2 and elaborated in Method S3. The results represent an average of three different experiments run in triplicate (±SEM) and expressed as nmol/10^6 cells or µM/cell. Quantification of the cellular uptake of Pt was based on external standards (Certified Standard from Sigma-Aldrich, VIC, Australia) containing Internal standard Ir.
(§3) Method S3. Cellular Uptake of Platinum(II) and (IV) complexes
(§4) A final concentration of 10^6 cells/well of MDA−MB−231 and HT29 cells were seeded in 6-well plates and incubated overnight to adhere. The cells were then treated with a final concentration of 3 µM of either PtII or PtIV complexes. After 0, 0.5, 1, 3, 6, 12, 24 or 30 h, the medium was removed, and the cells were washed three times with cold PBS and allowed to dry. Then, 400 µL of 69% HNO3 (Baseline grade nitric acid with Instrument Quality Grade Nitric acid with ppb level reported impurities, Seastar Chemicals, Sidney, Canada) was added to each well for 90 mins to ensure complete digestion. The digests were then moved to trace -metal free 15 mL centrifuge tubes […]
(§5) concentration of 3.5-4%. Iridium 193 (193Ir), selected as internal standard, has similar first ionisation potential and mass to Platinum 195 (195Pt). A concentration of 50 ppb 193Ir in 2% HNO3 solution was chosen for the Perkin Elmer NexION® Inductively Coupled Plasma Mass Spectrometer (ICP-MS) as it produced a steady state signal intensity of 600-800K counts per second. Mixing and injection of sample and internal standard solution was carried out using an ESI 7 port Valve system (Elemental Scientific, USA). A high-quality Solvent Flex 2 stop pump with 0.38 mm ID tubing was used in conjunction with the ICP-MS’s Peristaltic pump set at 20 […]
(§6) standard both, at 0.25 mL/min) being 0.5 mL/min. The ICP-MS was tuned to high sensitivity settings to facilitate detection of low Pt concentrations in samples. This was done by adjusting the nebuliser gas flow between […] to achieve maximum Indium 115 intensity whilst maintaining an acceptable average oxide and doubly charged ratio of 1.64-2.24% and 1.17-1.69% respectively. The analysis method was set to peak hopping mode with a dwell time of […] and 45 sweeps through the mass spectrum per sample read. […]
(§7) peak integration time of 4500 milliseconds and enabled the collection of numerous data points for peak integration thereby increasing accuracy. The ICP-MS was tuned daily, and its performance optimised to a set of suppliers recommended settings. Analysis was only carried out when optimal oxide and doubly charged ratios with high ionic sensitivity was achieved. All ICP-MS parameters are described in Table S2. The results represent an average of three different experiments run in triplicates (± SEM) and expressed as nmol/106 cells or µM/cell. Quantification of the cellular uptake of Pt was based on external standards (Certified Standard from Sigma-Aldrich NSW, Australia) containing Internal standard Ir. […]

MDA−MB−231 cells = experiment: Cellular uptake of Pt by ICP-MS; settings: for Intracellular Concentration: MDA−MB−231, 3 µM; for Intracellular/extracellular ratio: MDA−MB−231, extracellular 3 µM
Description: as §2, §3, §4, §5, §6, §7

Row | SMILES | IC50 (HT29 spheroids) [µM] | IC50 (MDA−MB−231 spheroids) [µM] | IC50 (MDA−MB−231 3D networks) [µM] | Intracellular Concentration (HT29 cells; 0 h) [nmol/10^6 cells] | Intracellular Concentration (HT29 cells; 0.5 h) [nmol/10^6 cells] | Intracellular Concentration (HT29 cells; 1 h) [nmol/10^6 cells] | Intracellular Concentration (HT29 cells; 3 h) [nmol/10^6 cells] | Intracellular Concentration (HT29 cells; 6 h) [nmol/10^6 cells] | Intracellular Concentration (HT29 cells; 12 h) [nmol/10^6 cells] | Intracellular Concentration (HT29 cells; 24 h) [nmol/10^6 cells] | Intracellular Concentration (HT29 cells; 30 h) [nmol/10^6 cells] | Intracellular/extracellular ratio (HT29 cells; 0 h) | Intracellular/extracellular ratio (HT29 cells; 0.5 h) | Intracellular/extracellular ratio (HT29 cells; 1 h) | Intracellular/extracellular ratio (HT29 cells; 3 h) | Intracellular/extracellular ratio (HT29 cells; 6 h) | Intracellular/extracellular ratio (HT29 cells; 12 h) | Intracellular/extracellular ratio (HT29 cells; 24 h) | Intracellular Concentration (MDA−MB−231 cells; 0 h) [nmol/10^6 cells] | Intracellular Concentration (MDA−MB−231 cells; 0.5 h) [nmol/10^6 cells] | also measured
1 | Cc1c(C)c2cccnc2c2ncccc12.N[C@H]1CCCC[C@@H]1N.O=[N+]([O-])[O-].O=[N+]([O-])[O-].[OH][Pt+2][OH] [Pt^IV56MESS(OH)2, [Pt(5,6-dimethyl-1,10-phenanthroline)(1S,2S-diaminocyclohexane)(dihydroxy)](NO3)2] | 3.16 ± 1.32 | 4.59 ± 1.35 | 1.4 ± 1.34 | 0.14 | 0.18 | 0.28 | 0.42 | 1.74 | 5.43 | 9.14 | 9.98 | 21.81 | 28.52 | 43.51 | 66.77 | 273.54 | 854.01 | 1435.74 | 0.14 | 0.11 | Intracellular/extracellular ratio (HT29 cells; 30 h): 1568.28; Intracellular Concentration (MDA−MB−231 cells; 1 h): 0.05 nmol/10^6 cells; Intracellular Concentration (MDA−MB−231 cells; 3 h): 0.25 nmol/10^6 cells; Intracellular Concentration (MDA−MB−231 cells; 6 h): 0.30 nmol/10^6 cells; Intracellular Concentration (MDA−MB−231 cells; 12 h): 1.16 nmol/10^6 cells; Intracellular Concentration (MDA−MB−231 cells; 24 h): 2.74 nmol/10^6 cells; Intracellular Concentration (MDA−MB−231 cells; 30 h): 4.19 nmol/10^6 cells; Intracellular/extracellular ratio (MDA−MB−231 cells; 0.5 h): 50.71; Intracellular/extracellular ratio (MDA−MB−231 cells; 1 h): 26.14; Intracellular/extracellular ratio (MDA−MB−231 cells; 3 h): 117.57; Intracellular/extracellular ratio (MDA−MB−231 cells; 6 h): 142.93; Intracellular/extracellular ratio (MDA−MB−231 cells; 12 h): 548.82; Intracellular/extracellular ratio (MDA−MB−231 cells; 24 h): 1293.81
2 | N[C@H]1CCCC[C@@H]1N.O=[N+]([O-])[O-].O=[N+]([O-])[O-].[OH-].[OH-].[Pt+4].c1cnc2c(c1)ccc1cccnc12 [[Pt(1,10-phenanthroline)(1S,2S-diaminocyclohexane)(dihydroxy)](NO3)2] | 11.4 ± 1.31 | 13.5 ± 1.25 | 6.18 ± 1.62 | 0.10 | 0.10 | 0.18 | 0.33 | 0.77 | 3.64 | 5.18 | 5.79 | 16.45 | 15.93 | 28.08 | 51.34 | 121.19 | 571.26 | 813.09 | 0.13 | 0.13 | Intracellular/extracellular ratio (HT29 cells; 30 h): 909.81; Intracellular Concentration (MDA−MB−231 cells; 1 h): 0.223 nmol/10^6 cells; Intracellular Concentration (MDA−MB−231 cells; 3 h): 0.16 nmol/10^6 cells; Intracellular Concentration (MDA−MB−231 cells; 6 h): 0.25 nmol/10^6 cells; Intracellular Concentration (MDA−MB−231 cells; 12 h): 0.63 nmol/10^6 cells; Intracellular Concentration (MDA−MB−231 cells; 24 h): 0.78 nmol/10^6 cells; Intracellular Concentration (MDA−MB−231 cells; 30 h): 1.29 nmol/10^6 cells; Intracellular/extracellular ratio (MDA−MB−231 cells; 0 h): 21.21; Intracellular/extracellular ratio (MDA−MB−231 cells; 0.5 h): 20.07; Intracellular/extracellular ratio (MDA−MB−231 cells; 1 h): 35.47; Intracellular/extracellular ratio (MDA−MB−231 cells; 3 h): 26.14; Intracellular/extracellular ratio (MDA−MB−231 cells; 6 h): 38.82; Intracellular/extracellular ratio (MDA−MB−231 cells; 12 h): 98.56; Intracellular/extracellular ratio (MDA−MB−231 cells; 24 h): 123.87; Intracellular/extracellular ratio (MDA−MB−231 cells; 30 h): 203.38
3 | N[C@H]1CCCC[C@@H]1N.O=[N+]([O-])[O-].O=[N+]([O-])[O-].[Pt+2].c1cnc2c(c1)ccc1cccnc12 [[Pt(1,10-phenanthroline)(1S,2S-diaminocyclohexane)](NO3)2] | 3.93 ± 1.46 | 5.44 ± 1.35 | 2.84 ± 1.56 | 0.61 | 0.85 | 0.72 | 2.77 | 5.95 | 12.59 | 15.26 | 16.99 | 95.39 | 133.55 | 112.44 | 435.59 | 935.29 | 1979.17 | 2397.59 | 0.40 | 0.46 | Intracellular Concentration (MDA−MB−231 cells; 1 h): 0.80 nmol/10^6 cells; Intracellular Concentration (MDA−MB−231 cells; 3 h): 0.81 nmol/10^6 cells; Intracellular Concentration (MDA−MB−231 cells; 6 h): 1.03 nmol/10^6 cells; Intracellular Concentration (MDA−MB−231 cells; 12 h): 2.59 nmol/10^6 cells; Intracellular Concentration (MDA−MB−231 cells; 24 h): 3.01 nmol/10^6 cells; Intracellular Concentration (MDA−MB−231 cells; 30 h): 4.79 nmol/10^6 cells; Intracellular/extracellular ratio (MDA−MB−231 cells; 0 h): 63.45; Intracellular/extracellular ratio (MDA−MB−231 cells; 0.5 h): 72.01; Intracellular/extracellular ratio (MDA−MB−231 cells; 1 h): 126.21; Intracellular/extracellular ratio (MDA−MB−231 cells; 3 h): 127.55; Intracellular/extracellular ratio (MDA−MB−231 cells; 6 h): 161.09; Intracellular/extracellular ratio (MDA−MB−231 cells; 12 h): 407.32; Intracellular/extracellular ratio (MDA−MB−231 cells; 24 h): 473.33; Intracellular/extracellular ratio (MDA−MB−231 cells; 30 h): 752.93
